Entries after “also recorded” stand apart in the source; their conditions may differ.
Tests used:
HUVEC [1] = experiment: in vitro angiogenesis / tube formation under oxidative stress; assay type: cell-based, Human; conditions: for angiogenesis and new tube formation: HUVEC under oxidative stress (200 μM H2O2); for angiogenesis and new tube formation (FIG. 5): SA-9 0.5 μM, SA-10 0.005 μM, H2O2 200 μM, low serum media
Experimental: In vitro angiogenesis studies. Cultrex reduced growth factor basement membrane extracted gel (Cat. 3433-005-01, R&D Systems, Inc.) was coated on bottom of μ-Slide angiogenesis wells (Cat. 81506, iBidi GmbH Co.). ECs at early passages (passage 6th or earlier) were then seeded on gel at a seeding density of 25,000 cells/cm^2. Next, cells were treated with treatment groups (SA-2, SA-10, SA-10 NPs, VEGF) under stress condition (200 μM H2O2). After 12 hours of incubation, formation of new microtubes were visualized and captured on phase contrast microscopes. Images were then stacked and processed with Angiogenesis analyzer on ImageJ.

[2] = system: Nitric oxide synthetase (NOS); experiment: NOS activating activity in HUVEC under H2O2 stress; assay type: cell-based, Human; conditions: for level of NOS: HUVEC treated with H2O2, both doses 0.05 μM and 0.5 μM; for eNOS activity: HUVEC under H2O2 induced oxidative stress
Experimental: In vitro Nitric oxide synthetase (NOS) activating activity. Human Umbilical Vascular Endothelial Cells (HUVECs) were plated at a density of 2×10^5 cells per well and were treated with or without H2O2 (200 μM) and compounds at different concentrations. NOS knock-down samples (NOSi) were cells exposed to a competitive NOS inhibitor L-NNA at 50 μM. After 24-hour-treatment, total NOS activity from treated cells was quantified using OxiSelect™ Intracellular Nitric Oxide (NO) Assay Kit where NOS activity correlates to fluorescent intensity^5.

[3] = system: primary microglia isolated from rat retina; experiment: TII induced nitric oxide in primary microglia (Greiss assay); assay type: cell-based; conditions: 10 μM, 24 h
[4] = system: primary microglia isolated from rat retina; experiment: TII induced cell death in primary microglia (LDH assay); assay type: cell-based; conditions: 10 μM, 24 h
[5] = system: primary microglia isolated from rat retina; experiment: TII induced ROS in primary microglia (DCFDA assay); conditions: for TII induced ROS production: 10 μM, 24 h, TII = TNF-α, IL-1β, IFN-γ; for activation of microglia by the compound itself: rat primary microglia, without TII
[6] = system: mouse hippocampal neural cells (HT-22); experiment: cytotoxicity / proliferation in mouse hippocampal neural cells (HT-22); conditions: for cell proliferation: different doses
[7] = system: human trabecular meshwork cells; experiment: cytoprotection of human trabecular meshwork cells under TBHP induced oxidative stress; assay type: cell-based; conditions: for cytoprotective activity: TBHP (300 μM) induced oxidative stress; for concentration providing cytoprotection: oxidative stress induced cell death model
HUVEC [8] = experiment: HUVEC viability / cytoprotection under H2O2 induced oxidative stress (MTT); assay type: cell-based, Human; conditions: for cytoprotective activity: different concentrations; for effective range of concentration to protect ECs: ECs under H2O2 stress
ROS in HUVEC cells = experiment: ROS scavenging in HUVEC under oxidative stress (DCFDA assay); assay type: cell-based, Human; conditions: H2O2 induced oxidative stress, SA-9 at 0.05 μM
[9] = pyrogallol induced ROS (superoxide) scavenging assay; assay type: biochemical; conditions: Concentration 250 μM; Time 0.5 h
endothelial cells = experiment: transwell chemotaxis EC migration under oxidative stress; assay type: cell-based, Human; conditions: for EC migration (FIG. 6): 0.5 μM, transwell
Experimental: Cell migration studies. Transwell chemotaxis migration studies were conducted to study effects of SA-2 and SA-10 drugs on the migration of endothelial cells under stress conditions. To this, ECs were seeded at 50,000 cells/cm^2 on upper compartment (low serum media with 200 μM H2O2) and attracted to migrate through 8 μm-pore membrane by chemotaxis (SA compounds dissolved in low serum media with 200 μM H2O2) added in lower compartment. At 12 hours, migrated cells were fixed with 4% paraformaldehyde and stained with crystal violet prior to imaging and counting by Cell counter on ImageJ.

I/R mice retina = experiment: retinal ischemia/reperfusion injury model in mouse eyes; assay type: in vivo
Experimental: The function of retinal ganglion cells (RGCs) can be non-invasively assessed by pattern electroretinogram (PERG) a technique that emphasizes the activity of inner retina neurons. The amplitude of PERG reflects the degree of apparent damage by RGCs. A murine model of ocular stroke was employed to evaluate the function of […] upon administration of SA-10. After a single intravitreal injection of 100 μM of SA-10 to the left eye of mice (C57BL/6J, 12 weeks old, female) having undergone ischemia reperfusion (I/R) procedure, standard PERG was analyzed 1 week post I/R to determine whether compound SA-10 could prevent PERG deficits (FIGS. 9A & 9B). […] However, there was a significant decrease in PBS treated mice compared to PERG amplitudes from sham mice (14.8±1.4 μV, n=5). As expected, compound SA-10 injection increased PERG amplitude compared to PBS-treated I/R mice (21±1.4 μV, n=5, p<0.05 vs. I/R+PBS treated mice; values signify mean±SEM).
Ischemic/reperfusion injury model in mouse eyes. Mice (C57Bl6/J, 12 weeks, n=5) were anesthetized and the ischemic/reperfusion (I/R) injury was performed on left eye after it was numbed with proparacaine followed by intravitreal injection of 2 μl of […] of compound SA-10 formulated in PBS (I/R+SA-10 group) or only 2 μl PBS to left eye (I/R+PBS group) at days 0. At day 7, pattern ERG was performed with the JORVEC System. SD-OCT was done to measure the change in overall thickness of retina layers and flash ERG was done to measure the function of bipolar cells (b-wave) as well as photoreceptor cells (a-wave) after 28 days. Pattern ERG was performed to measure the function of RGCs. Right eye was served as contralateral control.

[10] = system: plasminogen activating inhibitor-1 (PAI-1); experiment: DEX induced PAI-1 in human trabecular meshwork cells (western blot); assay type: cell-based; conditions: DEX 100 nM, compound 100 μM, 48 hr, conditioned medium
Experimental: Briefly, cells were plated at a density of 2×10^5 cells per well and were treated with DEX (100 nM) or vehicle (ethanol) in the presence of 100 μM of SA-1, SA-2, SA-9, SA-10 and PBA (positive control) for 48 hr. Conditioned medium was collected for western blot. Experiments were performed in triplicates.
In vitro plasminogen activating inhibitor-1 (PAI-1) activity. Human primary trabecular meshwork (hTM) cells were plated in 6-well plates at a density of 2×10^5 cells per well and were treated with dexamethasone (DEX, 100 nM) or vehicle (ethanol) in the presence of test compounds (100 μM) for 48 hr. Conditioned medium was collected for Western Blot. Experiments were performed in triplicates […].

ischemic hindlimb mice = experiment: hind limb ischemia (PAD) model: blood perfusion and treadmill; assay type: in vivo, mouse
From the text: Parameters: Incline 30 degrees; max endurance test at […]; stimulation: 1.5 mA. Stimulation and distance count were stopped when a mouse met one of the following conditions: 1) total stimulation time 30 seconds; or 2) single stimulation time is more than 10 seconds.
Animal model. Since PAD happens commonly in old people, the inventor used old mice for ischemic hindlimb animal models. To this, male and female Balb/c mice at age of 30-40 weeks old were chosen for these in vivo studies. Animals were housed in individual cage at normal diet before performing ligation. In brief, animals were anesthetized with 2% isoflurane, and prior to incision, analgesic SR Buprenorphine was injected subcutaneously (at dose of 1 mg/kg for mice). Upon opening the incision on animals left legs, the membrane covering the inguinal fat tissue was carefully separated to expose the neurovascular bundle underneath and veins and nerves were then carefully separated from arteries. Next, three pair of 1 mm-distal ties (using 6-0 or 7-0 nonabsorbable suture) followed by transection (by spring scissor) were made on femoral artery, proximal caudal femoral artery and superficial caudal epigastric artery. Finally, the incision was closed by absorbable 5-0 or 6-0 sutures. The animal model appeared limping similar to literature report^37 from the time post-treatment until endpoint study.
Therapeutic groups of study and sample size. After 3 days of ligation, mice were randomly assigned into 4 groups: Sham, free SA-10, SA-10 NPs and blank PLGA NPs. Sham groups were injected with saline without any therapeutic treatment. Based on study of biodistribution, the route of administration was intramuscular (IM) injection. To determine sample size, a power of analysis was processed on SigmaPlot v.13 software. Significant difference would be considered when P<0.05. Based on the inventor's own experience and literature reports, the inventor selected power with α<0.05 as 0.8. Calculation yielded sample size as n=5.
In vivo blood perfusion and physical test. Animals under treatments were measured for their recovery physiologically and physically. In the former study, animals were anesthetized with 1.5-2% isoflurane, and blood perfusion was measured with Laser Speckle Contrast Imaging (PeriCam PSI NR, Perimed AB). Briefly, hemoglobin in shallow vessels and capillaries responded to exciting lasers in term of color pigments. The relative blood perfusion was calculated by device software (PIMSoft), and it correlated to typical pigments. […]
When the animal was not running for total of 30 seconds under stimulation, the run of animals was terminated from recording. Physical recovery of animals was then quantified as covered distance until exhaustion, which was obtained from the treadmill software.

[11] = HUVEC, H2O2 induced oxidative stress

With `Nc1c[n+](C2CCSCC2)no1` [SA-9] the “angiogenesis and new tube formation” value (HUVEC [1]) was “induce angiogenesis and new tube formation”, the “angiogenesis and new tube formation (FIG. 5)” value (HUVEC [1]) was “induce angiogenesis and new tube formation” and the “level of NOS” value [2] was “increased the level of NOS significantly”. For the same compound, the eNOS activity [2] was “increase in eNOS activity”, the “TII induced nitric oxide (nitrite) production” value [3] was “decrease” and the “TII induced cell death (LDH release)” value [4] was “decrease the cell death”. For the same compound, the “TII induced ROS production” value [5] was “decrease”, the “activation of microglia by the compound itself” value [5] was “did not activate” and the cytotoxicity ([6]; different concentrations) was “not toxic to neural cells”. The cell proliferation [6] was “dose dependent increase in cell proliferation”, the cytoprotective activity [7] was “superior cytoprotective activity” and the concentration providing cytoprotection [7] was 8 µM. The cytoprotective activity (HUVEC [8]; [11]) was “potent cytoprotective activity”, the “ROS scavenging activity in DCFDA assay” value (ROS in HUVEC cells) was “scavenged ROS” and the “AUCt=0 to t=3h” value [9] was 3402. The EC migration (endothelial cells) was “induce EC migration” and the “EC migration (FIG. 6)” value (endothelial cells) was “induce EC migration”.

In the case of `O=c1cc(-c2ccccc2)oc2cc(O)c(O)c(O)c12` [Baicalein, baicalein], the “AUCt=0 to t=3h” value [9] is reported as 1944.

In the case of `[NH-]c1c[n+](N2CCOCC2)no1` [SIN-1, reference compound], the “TII induced ROS production” value [5] is reported as “did not” and the “AUCt=0 to t=3h” value [9] is reported as 1856.

In the case of `Nc1c[n+](C2CCS(=O)(=O)CC2)no1` [SA-10], the “angiogenesis and new tube formation” value (HUVEC [1]) is reported as “induce angiogenesis and new tube formation; also recorded: significantly induced tube formation”, the “angiogenesis and new tube formation (FIG. 5)” value (HUVEC [1]) is reported as “induce angiogenesis and new tube formation” and the eNOS activity [2] is reported as “induced eNOS signals”. The “TII induced nitric oxide (nitrite) production” value [3] was “decrease”, the “TII induced cell death (LDH release)” value [4] was “decrease the cell death” and the PERG amplitude (I/R mice retina; 1 week post I/R, single intravitreal injection 100 μM, mean±SEM, n=5) was 21±1.4 μV. For the same compound, the “retinal layer thickness by SD-OCT” value (I/R mice retina; after I/R) was “maintenance of retinal layer thickness”, the “ERG amplitude (a- and b-wave) damage after I/R” value (I/R mice retina; flash ERG 28 days post-I/R) was “significantly reversed these damages” and the “protein nitrosylation in retina” value (I/R mice retina; intravitreal dosing of 2%) was “doesn't cause any significant protein nitrosylation”. The “retina protection against ischemic stroke and reperfusion” value (I/R mice retina; single intravitreal injection) was “protective to retina”, the “TII induced ROS production” value [5] was “decrease” and the “activation of microglia by the compound itself” value [5] was “did not activate”. For the same compound, the cytoprotective activity [7] was “cytoprotective activity”, the “EC protection, longer protection study” value (HUVEC [8]; 2-day stress with 400 μM H2O2) was “protected over the course of 2-day stress” and the “effective range of concentration to protect ECs” value (HUVEC [8]) was “up to 100 μM”. For the same compound, the cytoprotective activity (HUVEC [8]; [11]) was “potent cytoprotective activity”, the “ROS scavenging activity in DCFDA assay” value (ROS in HUVEC cells) was “didn't show any significant ROS scavenging activity” and the “DEX induced PAI-1” value [10] was “showed inhibition; also recorded: decreased DEX induced increase in PAI-I level”. For the same compound, the EC migration (endothelial cells) was “induce EC migration; also recorded: performed comparably to SA-2”, the “EC migration (FIG. 6)” value (endothelial cells) was “induce EC migration” and the blood perfusion indexes (ischemic hindlimb mice; 0.125 mg/kg drug, IM, ischemic versus normal limb) was “performed better than sham and blank vehicle at the beginning”. The endurance run (ischemic hindlimb mice; 0.125 mg/kg drug, IM, treadmill distance until exhaustion) was “performed better than sham and blank vehicle at the beginning”, the “recovery in treadmill experiment” value (ischemic hindlimb mice; IM injection, day 0 and day 7, vs. sham and VEGF) was “good recovery effects” and the “new blood vessel formation and blood circulation” value (ischemic hindlimb mice; mouse leg after artery occlusion, assessed by treadmill) was “increase new blood vessel formation and blood circulation”.

In the case of `CC1(C)CC([n+]2cc(N)on2)CC(C)(C)N1O` [SA-2, reference compound], the “level of NOS” value [2] is reported as “increased the level of NOS significantly”, the eNOS activity [2] is reported as “induced eNOS signals” and the cell proliferation [6] is reported as “didn't show such trend”. The concentration providing cytoprotection [7] was 16 µM, the “effective range of concentration to protect ECs” value (HUVEC [8]) was “up to 1 μM” and the “doses showing cytoprotective activity” value (HUVEC [8]; [11]) was “decreased as the dose increased”. For the same compound, the “DEX induced PAI-1” value [10] was “didn't show such activity” and the “AUCt=0 to t=3h” value [9] was 3338.
